Data from patent US8003096B2, “Means and methods for the recruitment and identification of stem cells” (Vlaams Interuniversitair Instituut voor Biotechnologie VZW, priority 2003, dated 2011).

Tests used:
Assay type in all cases: in vivo, mouse
BM cells = assay: FACS analysis of BM cells after 5-FU; settings: for Sca-1+ progenitors in S-phase of the cell cycle: 5-FU treatment; for CD3ε+ lymphoid cell counts / Gr1+CD11b+ myeloid cell counts: day 7 after 5-FU; for BM HSCs (Sca-1+cKit+ cells) / HPCs (Sca-1+ cells): seven days after 5-FU
Source text: Murine BM cells were filtered through a 40 μm nylon mesh (Falcon) and stained with labeled anti-mouse antibodies against CD11b, Gr-1, CD3ε, CD19, Sca-1, α5β1, (BD Biosciences), cKit (eBioscience). Anti-mouse α4β1, antibodies were generated from hybridoma (PS/2; ATCC), and detected using a secondary labeled anti-rat antibody (Caltag). Mouse annexin II was detected using a goat anti-annexin II antibody (Santa Cruz), and a secondary labeled rabbit anti-goat antibody (Caltag). Mouse uPAR was detected using a rabbit anti-mouse uPAR antibody (Sier et al. (2004), Thromb. Haemost. 91:403-11), and a secondary labeled goat anti-rabbit antibody (BD Biosciences). Control stainings included matched isotype antibodies and pre-immune antibodies. Non-specific binding was prevented by addition of mouse serum (DAKO), as alternative for Fc-receptor block. For cell cycle analysis, BM cells were stained with Sca-1-FITC and treated with PI/RNAse (BD Biosciences), as previously described (Heissig et al. (2002), Cell 109:625-37). From EDTA-anti-coagulated human blood, full blood counts were performed, MNCs were prepared using Lymphoprep (Axis-Shield), counted, and 1×10^6 PB MNCs were stained with anti-human CD34 (Tebu Bio).

fibronectin, collagen IV = assay: Immunostaining of BM sections for ECM proteins
Description: Mice were killed via cervical dislocation, femurs were removed, fixed in 2% paraformaldehyde in PBS for 24 hours, and decalcified in EDTA solution. After dehydration and paraffin embedding, 10 μm transverse sections were prepared on Superfrost Plus slides. Immunohistochemistry was performed using antibodies against VWF (DAKO), MMP-9 (Oncogene), tPA, uPA, MMP-2, MMP-3, MMP-12 (Santa Cruz), laminin, fibronectin (Sigma), and collagen IV (kind gift from A. Noel). Analysis was performed on a Zeiss Axioplan2, a 3CCD video camera (DXC-93OP, Sony), and KS300 software.

plasmin = assay: Plasmin activity in BM plasma, chromogenic assay; settings: WT mice
Description: To study the role of the plasminogen proteinase system with its plasminogen activators tPA and uPA, and active plasmin in stem/progenitor cell mobilization, mice lacking plasminogen (Plg^−/−), tPA (tPA^−/−), uPA (uPA^−/−) and both activators (tPA^−/−uPA^−/−) were used.^(17, 18) Age- and sex-matched mice were kept in IVC cages. Mobilization was induced either via a single sublethal injection i.v. of the myeloablative agent 5-fluorouracil (5-FU, 200-250 mg/kg), or via administration s.c. of recombinant human G-CSF (Filgrastim, Amgen, 200 μg/kg/d) for five consecutive days.^(12) Peripheral blood (PB) samples were obtained by retro-orbital bleeding under light anesthesia. Full blood counts were determined on the Abbott Cell Dyn 1300 hemocytometer. The number of mobilized hematopoietic progenitor cells (HPCs) in the circulation was determined via methylcellulose-based CFU-C assays (MethoCult, Stem Cell Technologies), per 10^5 peripheral blood mononuclear cells (PB MNCs).^(12) The number of mobilized hematopoietic stem cells (HSCs) in the circulation was quantified via splenic colony-forming assays (CFU-S), and evaluated for long-term engraftment via transplantation into lethally irradiated syngeneic wild-type recipients (9.5 Gy total body irradiation). […]

Q: Which results are given for O=c1[nH]cc(F)c(=O)[nH]1 [5-FU, 5-fluorouracil]?
A: Sca-1+ progenitors in S-phase of the cell cycle (BM cells; Plg−/− mice): 1.2±0.6 ×10^4 per femur; CD3ε+ lymphoid cell counts (BM cells; Plg−/− mice): 67±31 ×104 per femur; Gr1+CD11b+ myeloid cell counts (BM cells; Plg−/− mice): 3±2 ×10^4 per femur; BM HSCs (Sca-1+cKit+ cells) (BM cells; Plg−/− mice): 5±1 ×10^4 per femur; HPCs (Sca-1+ cells) (BM cells; Plg−/− mice): 48±22 ×10^4 per femur; Sca-1+ progenitors in S-phase of the cell cycle (BM cells; WT mice): 8.4±0.8 ×10^4 per femur; CD3ε+ lymphoid cell counts (BM cells; WT mice): 438±122 ×104 per femur; Gr1+CD11b+ myeloid cell counts (BM cells; WT mice): 29±13 ×10^4 per femur; BM HSCs (Sca-1+cKit+ cells) (BM cells; WT mice): 42±9 ×10^4 per femur; HPCs (Sca-1+ cells) (BM cells; WT mice): 206±20 ×10^4 per femur; collagen-IV+ area as % of total area (fibronectin, collagen IV; 5-FU-treated WT mice): 21±1%; fibronectin+ area as % of total area (fibronectin, collagen IV; 5-FU-treated WT mice): 9±1%; collagen-IV+ area as % of total area (fibronectin, collagen IV; 5-FU-treated uPA−/− mice): 26±1%; fibronectin+ area as % of total area (fibronectin, collagen IV; 5-FU-treated uPA−/− mice): 14±2%; plasmin activity in BM plasma (plasmin; after single i.v. bolus, N=4): 75±14 U; elevation of plasmin activity in BM plasma above baseline (plasmin; single i.v. bolus): five-fold
